# Earlier results in patent publication US12090144B2, “Photocurable hydrogel loaded with VH298-modified exosome and method of preparation and use thereof” (Chinese PLA General Hospital, priority 2022, dated 2024).
# Settings: background statement
compound,measurement,value
Cc1ncsc1-c1ccc(CNC(=O)[C@@H]2C[C@@H](O)CN2C(=O)[C@@H](NC(=O)C2(C#N)CC2)C(C)(C)C)cc1 [VH298],water solubility,poor water solubility
